The nature of data set [1]: Pharmacokinetic study in mice (IV and PO), plasma. Particulars: for AUC(0-t) / half-life / AUC(0-inf) / Cmax / Cmax at 5 min: female, C57BL/6; for AUC(0-t) / half-life / AUC(0-inf) / Cmax / AUC—% Extrap—obs / Cl_obs / Vz_obs / Cmax at 5 min / AUC_% Extrap_obs: mouse plasma; for Cmax: read-out: Cmax (5 min); for Rsq: Mouse Plasma, fit of NCA. In kind it is in vivo, mouse. The method, then: Pharmacokinetic analysis of compounds was conducted following bolus intravenous (IV) or bolus oral (PO) gavage in mice. Female mice (C57BL/6) in the 17-26 g range were weighed, and then administered an individually prescribed dose volume based on body weight of formulated compound via the intravenous (IV; tail vein) or oral gavage (PO) route (IV 5 mL/kg; PO 10 mL/kg). At selected timepoints post administration, blood was collected into vials with anticoagulant, processed for plasma by centrifugation, and then kept frozen ([…]) until analysis.
The in-vivo study plasma samples were analyzed using Ultra Performance Liquid Chromatography (UPLC) with tandem mass spectrometry (MS/MS) detection in multiple reaction monitoring (MRM) mode. A generic bioanalytical method involving plasma sample extraction and cleanup by protein precipitation with acetonitrile was used followed by UPLC-MS/MS analysis.
A brief example of a generic bioanalytical UPLC-MS/MS method used for analysis of compounds in the in-vivo study plasma samples is as follows. Plasma samples were spiked with internal standard prior to extraction and cleanup by protein precipitation with ice cold acetonitrile containing 0.1% (v/v) ammonium hydroxide at a ratio of 3:1 (solvent:plasma) and centrifuged at 18213 rcf for 15 minutes at 4° C. to pellet precipitates. Aliquots of supernatants were transferred to a 96-well plate and evaporated to dryness at 40° C. under a stream of nitrogen gas. Samples were reconstituted in 50:50 acetonitrile/10 mM ammonium acetate buffer pH 8, mixed thoroughly and analyzed using Ultra Performance Liquid Chromatography (UPLC) with tandem mass spectrometry (MS/MS) detection in multiple reaction monitoring (MRM) mode. Matrix-matched calibration standards and quality control (QC) samples were prepared in naïve C57Bl/6 mouse plasma. The UPLC column used was Waters Acquity UPLC BEH C18 1.7 um, 2.1 mm×50 mm (with guard column). The UPLC mobile phase consisted of: Mobile phase A: 10 mM ammonium acetate in Water pH 8, and Mobile phase B: Acetonitrile. Separation was accomplished with a linear gradient of 5% mobile phase B to 95% mobile phase B in 2 min, and a flow rate of 0.35 mL/min. The MS/MS data acquisition was accomplished using 3 MRM Transitions in ESI+ mode. Parent ion mass 508.37 m/z-to-Daughter ions (m/z) 117.05, 232.13 and 270.22. The quantitation of concentrations in test samples was achieved by matrix-matched calibration with normalization using an internal standard. Data acquisition and analysis were performed using Waters MassLynx software with TargetLynx application manager.
Estimation of PK parameters was performed using independent noncompartmental model method by PHOENIX WinNonlin software.

For the next data set, the system named is FaDu tumour xenograft. The data set can be described thus: Clonogenic Survival, FaDu tumour xenograft-bearing Rag2M mice, compound ± radiation (CS-ER). It is filed as in vivo, mouse. Particulars: 30 mpk + 8 Gy. How it is done: FaDu tumour xenograft-bearing Rag2M mice were treated with single administrations of test compounds at indicated doses±radiation as indicated, at time 0.
Mice were irradiated at 1 h post compound administration (unless otherwise indicated), with 300 KV X-rays and a 10 mA current from a Precision XRAD 300 machine (USA) with a beam-hardening filter (2 mm Al+0.25 mm Cu+0.75 mm Sn) and an adjustable site to specimen distance (SSD) at a dose of 8-10 Gy, delivered at a rate of ˜1.05 Gy/min.
Mice were terminated at times after irradiation as indicated, and tumour tissues excised. A portion of tumour approximately 300-500 mg was briefly minced using sterile scissors and placed in a pre-weighed gentleMACS C tube (Miltenyi Biotec cat #130-093-237) and weighed with combined tumour+tube mass recorded. A 5 mL aliquot of enzyme cocktail comprising of trypsin/DNase/collagenase/EDTA-Na2 in PBS (1 mg/ml trypsin+0.26 mg/ml DNase+0.21 mg/ml collagenase+2 mM EDTA-Na2) was added to the tube, which is then run on the gentleMACS Dissociator disaggregation system. Tubes were then incubated at 37° C. and continually rotated for 20 min before again running on the gentleMACS Dissociator program. Samples were then diluted with 5 ml MEM medium containing 5% FBS and filtered (Falcon cell strainer 100 μm, cat #352360). After centrifugation (1100 rpm for 6 minutes at 4° C.) supernatant was aspirated and the cells resuspended in 4 ml cold growth medium (MEM+10% FBS)+50 ul DNase (5 mg/ml DNase solution). Cell numbers were counted from the same cell solution using a hemacytometer. Appropriate dilutions (control: 10,000 cells/ml; 8Gy: 400,000 cells/ml; drug+radiation treated; 500,000 cells/ml) were made and cells then plated in triplicate: control: 100 μl and 300 μl (1000 and 3000 cells/6 cm tissue culture plate); 8Gy: 30 μl, 105 μl and 350 μl (12000, 42000 cells/6 cm plates and 140000 cells/10 cm plate); drug+8Gy: 70 μl, 300p, 1.2 ml (35000 and 150000 cells/6 cm plates and 600000 cells/10 cm plates—only duplicate). Plates were incubated at 37° C. (in a 5% CO2, 5% O2 and balance N2 environment) for 14 days. For a final and accurate automated live-cell counting a solution of Hoechst33342 (0.01 mg/ml)+Propidium Iodide (0.004 mg/ml) in 0.9% saline was mixed with an appropriate cell number dilution of the samples in 96 well plates (50 ul staining solution+50 ul cell suspension of 10000 cells/ml) and images are taken of the wells and cell numbers are calculated by a computer program.
After 14 days plates were removed from the incubator, rinsed with PBS and stained with cold 2 g/L Malachite green oxalate salt solution (Sigma-Aldrich, cat #M6880) for 30 minutes at room temperature. Plates were rinsed with distilled water and dried. Pictures were obtained of the plates and colonies consisting of 50 or more cells were counted using a Stuart Scientific colony counter.
All plates with colonies were analyzed except when colony numbers were so high that the edges of individual colonies could not be determined accurately. Plating efficiency (PE) of each tumour sample was calculated first: PE is a ratio of the number of colonies to the number of cells seeded (sum of all the colonies countable in all the plates of the same sample divided by the sum of cells plated in the same plates). The PE of control tumours was averaged for the calculation of surviving fraction (SF): SF is based on the number of colonies formed in drug and/or radiation treated cells relative to that of untreated control (PE of treated tumor sample divided by PE of control). All treated data points were compared separately to the average of the controls. Finally a Clonogenic Survival Enhancement Ratio (CS-ER) was calculated: the SF of irradiated control groups were divided by the SF of treatment groups to determine treatment group-specific CS-ER values, and these were assigned scores based on defined response ranges: values>6=A, 4-6=B, <4=C.

Where [2] appears, read: IV, 3 mg/kg, read-out: AUCINF—obs.
Where [3] appears, read: PO, 10 mg/kg, read-out: AUCINF—obs.

Like-named read-outs stand apart in the source and are kept apart here.

As a reminder, the AUC(0-t) is the area under the concentration-time curve up to a stated or last time point. As a reminder, the half-life is the time in which the quantity being followed falls by half. A high value points to slow decline. Usually Cmax stands for the peak of the concentration-time curve. As to `CN1CCN(CCOc2cnc(N[C@H]3CC[C@@H](Oc4nc(N5CCOCC5)cc5ncccc45)CC3)nc2)CC1` [Compound 69, 5-(2-(4-Methylpiperazin-1-yl)ethoxy)-N-((1s,4s)-4-((7-morpholino-1,6-naphthyridin-5-yl)oxy)cyclohexyl)pyrimidin-2-amine], in data set [1] (IV, 3 mg/kg), the AUC(0-t) worked out at 1630 ng·h/mL, the half-life was 4.63 h, the Cmax was 611 ng/mL and the “AUC—% Extrap—obs” value was 28.28%. In data set [1] (IV, 3 mg/kg), this compound yielded a Cl_obs of 22.0313 mL/min/kg and a Vz_obs of 8.82488 L/kg. For the same compound, the AUC(0-inf) in data set [1] (setting [2]) stood at 2270 ng·h/mL. Besides, in data set [1] (PO, 10 mg/kg), the AUC(0-t) amounted to 5680 ng·h/mL, the half-life was 5.4 h, the Cmax came to 549 ng/mL and the “AUC—% Extrap—obs” value is on record as 6.56%. Also, in data set [1] (PO, 10 mg/kg), the Cl_obs was determined as 27.4375 mL/min/kg and the Vz_obs came out at 12.83577 L/kg. The AUC(0-inf) in data set [1] (setting [3]) amounted to 6070 ng·h/mL. This compound also displayed a F in data set [1] (mouse, PO, 10 mg/kg) of 105%. Also, the “CS-ER Range Score” value with FaDu tumour xenograft (4 h) is reported as “C (<4=C)”.

Consider `CN(C)C(=O)Cn1c(=O)n(C2CCOCC2)c2nc(N[C@H]3CC[C@@H](Oc4nc(N5CCOCC5)cc5ncccc45)CC3)ncc21` [Compound 97, N,N-Dimethyl-2-(2-(((1s,4s)-4-((7-morpholino-1,6-naphthyridin-5-yl)oxy)cyclohexyl)amino)-8-oxo-9-(tetrahydro-2H-pyran-4-yl)-8,9-dihydro-7H-purin-7-yl)acetamide], for which, in data set [1] (IV, 3 mg/kg), the Rsq was determined as 0.98, the AUC(0-t) was 4340 ng·h/mL, the Cmax at 5 min turned out to be 4860 ng/mL and the half-life is 2.21 h. Besides, in data set [1] (IV, 3 mg/kg), the “AUC_% Extrap_obs” value stood at 0.77%, the Cl_obs is 11.43 mL/min/kg and the Vz_obs was determined as 2.18741 L/kg. Besides, in data set [1] (PO, 10 mg/kg), the Rsq is recorded as 0.98, the AUC(0-t) came out at 6770 ng·h/mL, the highest concentration (Cmax) at 5 min turned out to be 2520 ng/mL and the half-life is 2.07 h. Moreover, in data set [1] (PO, 10 mg/kg), the “AUC_% Extrap_obs” value amounted to 0.03%, the Cl_obs was 24.6043 mL/min/kg and the Vz_obs stood at 4.41523 L/kg. For the same compound, the F in data set [1] (Mouse, PO 10 mg/kg vs IV 3 mg/kg) was 47%. Moreover, in data set [1] (IV, 3 mg/kg, read-out: AUCINF_obs), the AUC(0-inf) was 4380 ng·h/mL. Further, the AUC(0-inf) in data set [1] (PO, 10 mg/kg, read-out: AUCINF_obs) stood at 6770 ng·h/mL. In the data set on FaDu tumour xenograft (2 h), the “CS-ER Range Score” value is “C (<4=C)”. Moreover, the “CS-ER Range Score” value in the data set with FaDu tumour xenograft (4 h) is on record as “B (4-6=B)”.

As for `CN(C)C(=O)Cn1ccc2nc(N[C@H]3CC[C@@H](Oc4nc(N5CCOCC5)cc5ncccc45)CC3)ncc21` [Compound 86, N,N-Dimethyl-2-(2-(((1s,4s)-4-((7-morpholino-1,6-naphthyridin-5-yl)oxy)cyclohexyl)amino)-5H-pyrrolo[3,2-d]pyrimidin-5-yl)acetamide], in data set [1] (IV, 3 mg/kg), the area under the curve AUC(0-t) was found to be 4100 ng·h/mL, the half-life is 1.77 h, the Cmax was found to be 6450 ng/mL and the “AUC—% Extrap—obs” value is recorded as 1.44%. In data set [1] (IV, 3 mg/kg), this compound gave a Cl_obs of 12.022 mL/min/kg and a Vz_obs of 1.8426 L/kg. Further, the AUC(0-inf) in data set [1] (setting [2]) worked out at 4160 ng·h/mL. In addition, in data set [1] (PO, 10 mg/kg), the AUC(0-t) was 2620 ng·h/mL, the half-life is 2.92 h, the Cmax amounted to 589 ng/mL and the “AUC—% Extrap—obs” value was determined as 0.47%. In data set [1] (PO, 10 mg/kg), this compound gave a Cl_obs of 63.328 mL/min/kg and a Vz_obs of 16.019 L/kg. Besides, the AUC(0-inf) in data set [1] (setting [3]) stood at 2630 ng·h/mL. In data set [1] (mouse, PO, 10 mg/kg), this compound came in with an F of 19%. The “CS-ER Range Score” value in the data set on FaDu tumour xenograft (2 h) was “B B (4-6=B)”. The “CS-ER Range Score” value with FaDu tumour xenograft (4 h) is recorded as “B B (4-6=B)”.

Take `CN(C)C(=O)COc1ccc(C(=O)N[C@H]2CC[C@@H](Oc3nc(N4CCOCC4)cc4ncccc34)CC2)cn1` [Compound 117, 6-(2-(dimethylamino)-2-oxoethoxy)-N-((1s,4s)-4-((7-morpholino-1,6-naphthyridin-5-yl)oxy)cyclohexyl)nicotinamide]: the “CS-ER Range Score” value with FaDu tumour xenograft (2 h) is recorded as “C (<4=C)”; with FaDu tumour xenograft (4 h), “B (4-6=B)”.

In the case of `O=S(=O)(CF)Nc1cnc2cc(N3CCOCC3)nc(O[C@H]3CC[C@@H](Nc4ncccn4)CC3)c2c1` [Compound 192, 1-fluoro-N-(7-morpholino-5-(((1s,4s)-4-(pyrimidin-2-ylamino)cyclohexyl)oxy)-1,6-naphthyridin-3-yl)methanesulfonamide], the results for the “CS-ER Range Score” value in the data set on FaDu tumour xenograft (2 h) and in the data set on FaDu tumour xenograft (4 h) were “A (values>6=A)” and “B (4-6=B)”, respectively.
